The results in this text go back to patent US11534441B2, “MAP4K1 inhibitors” (Blueprint Medicines Corporation, priority 2020, dated 2022).

The experiment deals with MAP4K1 (HPK1) (Homo sapiens (Human), UniProt Q92918). The experiment can be described thus: MAP4K1 (HPK1) biochemical enzymatic activity, electrophoretic mobility shift (EZReader 2), ATP at APPKM (26 μM). The source says: MAP4K1 (HPK1) and relevant off-target enzymatic activity was monitored using the Perkin Elmer electrophoretic mobility shift technology platform—the EZReader 2. […] Within the linear, steady-state phase of the kinase enzymatic reaction, the mixed pool of phosphorylated (product) and non-phosphorylated (substrate) peptides was passed through the microfluidic system of the PerkinElmer EZ Reader 2, under an applied electric potential difference. The presence of the phosphate group on the product peptide provided a difference in mass and charge between that of the substrate peptide, resulting in a separation of the substrate and product pools in the sample (Perrin et al. 2010). As the product and substrate peptide mixture passes the lasers within the instrument, these pools are detected (λex=488 nm, λent=568 nm) and resolved as separate peaks. The ratio between these peaks reflects the activity of the compound at that concentration, in that well, under those conditions.
MAP4K1 (HPK1), sequence (Q92918 whole entry): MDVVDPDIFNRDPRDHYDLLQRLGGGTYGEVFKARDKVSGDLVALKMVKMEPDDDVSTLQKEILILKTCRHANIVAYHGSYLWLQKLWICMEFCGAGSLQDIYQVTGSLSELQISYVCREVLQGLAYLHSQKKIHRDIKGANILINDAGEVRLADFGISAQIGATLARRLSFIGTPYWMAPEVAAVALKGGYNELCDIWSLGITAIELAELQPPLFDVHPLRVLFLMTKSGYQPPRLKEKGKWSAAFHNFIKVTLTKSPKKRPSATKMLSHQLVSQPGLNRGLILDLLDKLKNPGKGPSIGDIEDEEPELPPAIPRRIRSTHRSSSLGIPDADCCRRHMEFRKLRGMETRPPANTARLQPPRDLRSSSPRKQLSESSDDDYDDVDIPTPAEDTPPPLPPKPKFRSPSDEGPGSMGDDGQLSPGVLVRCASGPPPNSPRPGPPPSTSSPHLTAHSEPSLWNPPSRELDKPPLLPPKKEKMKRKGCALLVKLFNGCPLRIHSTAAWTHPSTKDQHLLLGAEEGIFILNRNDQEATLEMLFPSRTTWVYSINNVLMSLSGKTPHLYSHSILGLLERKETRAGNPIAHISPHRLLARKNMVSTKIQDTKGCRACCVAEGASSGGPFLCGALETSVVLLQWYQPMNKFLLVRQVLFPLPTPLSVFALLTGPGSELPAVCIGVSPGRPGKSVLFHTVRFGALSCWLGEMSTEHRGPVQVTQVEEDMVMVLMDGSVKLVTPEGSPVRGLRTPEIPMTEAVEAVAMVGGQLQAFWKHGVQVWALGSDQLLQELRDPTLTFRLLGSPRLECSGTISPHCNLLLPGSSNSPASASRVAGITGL
Inhibitors were dissolved in 100% DMSO at a stock concentration of 10 mM. A 100×, 10-point, 4-fold serial dilution of each inhibitor was created in 100% DMSO either manually or on a Hamilton STAR liquid handler, starting at a relevant concentration, usually 1 mM. A volume of 0.130 μL of each concentration was transferred to the relevant wells of a 384-well plate (Greiner 781 201) in duplicate using a TTPLabtech Mosquito nano-litre dispenser. Using a Multidrop Combi, the remaining constituents of the kinase reaction were added to the 130 nL of dosed compound as follows (see table below for final reaction details):
Enzyme activity assays at the ^APPKM for ATP or 1 mM ATP: In each well of a 384-well plate, 0.1-15 nM of untreated enzyme was incubated in a total of 13 μL of buffer (100 mM HEPES pH 7.5, 0.015% Brij 35, 10 mM MgCl2, 1 mM DTT) with 1.5 μM fluorescent peptid and 20-1000 μM ATP, at 25° C., for 60-180 minutes in the presence or absence of a dosed concentration series of compound (1% DMSO final concentration). The kinase reactions were stopped by the addition of 70 μl of Stop buffer (100 mM HEPES pH 7.5, 0.015% Brij 35, 35 mM EDTA and 0.2% of Coating Reagent 3 (Caliper Lifesciences)). The plates were read on a Caliper EZReader 2 as described above.
Background: A gel shift assay detects complexes by their altered migration in electrophoresis.

`COc1ncc(C(C)(C)N)c2cc(Nc3cnc(C#N)c(C(C)C(F)(F)F)n3)ncc12` (stereo not shown) [Compound 63]: the IC50 (in general, the point on the concentration scale where inhibition reaches its midpoint) runs as follows: (class designation) 1.1 to 10 nM; (numeric value) 6.46 nM.

On to `C[C@H]1OC(=O)c2ccc(Nc3cc4c(C(C)(C)N)cnc(OC5CC5)c4cn3)nc2[C@@H]1C` [Compound 65], for which the IC50 runs as follows: (class designation) 0.31 to 1 nM; (numeric value) 0.56 nM.

On to `CC[C@@](C)(N)c1cnc(OC2(C)CC2)c2cnc(Nc3ccc4c(n3)[C@@H](C)[C@H](C)OC4=O)cc12` [Compound 84], for which the IC50 is, setting by setting: (class designation) 1.1 to 10 nM; (numeric value) 1.32 nM.

As for `CC[C@@](C)(N)c1cnc(OC2(C)CC2)c2cnc(Nc3ccc4c(n3)[C@@H](C)C(C)(C)OC4=O)cc12` [Compound 86], the IC50 is 1.1 to 10 nM (class designation) and 2.03 nM (numeric value).

Take `C[C@@H]1OC(=O)c2ccc(Nc3cc4c([C@](C)(N)C5CC5)cnc(OC5(C)CC5)c4cn3)nc2[C@H]1C` [Compound 89]: the IC50 by setting is: (class designation) 1.1 to 10 nM; (numeric value) 5.12 nM.

In the case of `C[C@@H]1c2nc(Nc3cc4c([C@@](C)(N)C5CC5)cnc(OC5(C)CC5)c4cn3)ccc2C(=O)OC1(C)C` [Compound 90], the IC50 is 1.1 to 10 nM (class designation) and 3.42 nM (numeric value).

As to `CC[C@@](C)(N)c1cnc(OC2(C)CC2)c2cnc(Nc3ccc4c(n3)[C@@H](C)[C@@H](C)OC4=O)cc12` [Compound 93], the IC50 was 1.1 to 10 nM (class designation) and 3.65 nM (numeric value).

In the case of `C[C@@H]1c2nc(Nc3cc4c([C@@](C)(N)C5CC5)cnc(OC5(C)CC5)c4cn3)ccc2C(=O)O[C@@H]1C` [Compound 95], the IC50 reads like this: (class designation) 1.1 to 10 nM; (numeric value) 4.54 nM.

Consider `COc1ncc([C@@](C)(N)C2CC2)c2cc(Nc3ccc4c(n3)C(C)(C)OC4=O)ncc12` [Compound 98], for which the IC50 is greater than 10 nM (class designation) and 19.1 nM (numeric value).

As for `CC1(C)Cc2nc(Nc3cc4c(C(C)(C)N)ccc(Cl)c4cn3)ccc2C(=O)O1` [Compound 104, 2-((5-(2-Aminopropan-2-yl)-8-chloroisoquinolin-3-yl)amino)-7,7-dimethyl-7,8-dihydro-5H-pyrano[4,3-b]pyridin-5-one], the IC50 was less than 0.3 nM (class designation) and 0.13 nM (numeric value).

Regarding `CC(C)(N)c1cnc(OC2CC2)c2cnc(Nc3ccc4c(n3)C3(CC3)COC4=O)cc12` [Compound 107], the IC50 is, setting by setting: (class designation) 0.31 to 1 nM; (numeric value) 0.62 nM.

As to `C[C@H]1OC(=O)c2ccc(Nc3cc4c(C(C)(C)N)cnc(OC5CC5)c4cn3)nc2C12CC2` [Compound 119], the IC50 was less than 0.3 nM (class designation) and 0.12 nM (numeric value).

With `C[C@@H]1OC(=O)c2ccc(Nc3cc4c(C(C)(C)N)cnc(OC5CC5)c4cn3)nc2C12CC2` [Compound 120], the IC50 is 0.31 to 1 nM (class designation) and 0.5 nM (numeric value).

As to `CC[C@](C)(N)c1cnc(NC2CC2)c2cnc(Nc3ccc4c(n3)[C@@H](C)[C@H](C)OC4=O)cc12` [Compound 122], the IC50 was less than 0.3 nM (class designation) and 0.16 nM (numeric value).

As to `CC1(C)CCc2nc(Nc3cc4c(C(C)(C)N)cnc(OC5CC5)c4cn3)ccc2C(=O)O1` [Compound 125], the IC50 was 1.1 to 10 nM (class designation) and 1.84 nM (numeric value).

`CC[C@H]1c2nc(Nc3cc4c(C(C)(C)N)cnc(OC5CC5)c4cn3)ccc2C(=O)O[C@H]1C` [Compound 128]: the IC50 by setting is: (class designation) 1.1 to 10 nM; (numeric value) 1.09 nM.

Consider `CC[C@@](C)(N)c1cnc(OC2CC2)c2cnc(Nc3ccc4c(n3)[C@](C)(CC)OC4=O)cc12` [Compound 129], for which the IC50 is less than 0.3 nM (class designation) and 0.11 nM (numeric value).

On to `CC[C@H]1OC(=O)c2ccc(Nc3cc4c(C(C)(C)N)cnc(OC5CC5)c4cn3)nc2[C@@H]1C` [Compound 130], for which the IC50 (class designation) was in the range of 0.31 to 1 nM and the IC50 (numeric value) came out at 0.46 nM.

As for `CC[C@@H]1OC(=O)c2ccc(Nc3cc4c(C(C)(C)N)cnc(OC5CC5)c4cn3)nc2[C@H]1C` [Compound 134], the IC50 by setting is: (class designation) 1.1 to 10 nM; (numeric value) 1.33 nM.

Take `C[C@@H]1OC(=O)c2ccc(Nc3cc4c(C(C)(C)N)cnc(OC5CC5)c4cn3)nc2C1(C)C` [Compound 137]: the IC50 reads like this: (class designation) 0.31 to 1 nM; (numeric value) 0.46 nM.

For the molecule `CCCOc1ncc([C@](C)(N)CC)c2cc(Nc3ccc4c(n3)[C@@H](C)[C@H](C)OC4=O)ncc12` [Compound 142], the IC50 runs as follows: (class designation) less than 0.3 nM; (numeric value) 0.2 nM.

For `CCCOc1ncc([C@](C)(N)CC)c2cc(Nc3ccc4c(n3)CC(C)(C)OC4=O)ncc12` [Compound 143], the IC50 (class designation) was in the range of 0.31 to 1 nM and the IC50 (numeric value) came to 0.31 nM.

Regarding `CCCOc1ncc([C@@](C)(N)CC)c2cc(Nc3ccc4c(n3)CC(C)(C)OC4=O)ncc12` [Compound 144], the IC50 was 1.1 to 10 nM (class designation) and 3.89 nM (numeric value).

In the case of `CCCOc1ncc([C@@](C)(N)CC)c2cc(Nc3ccc4c(n3)[C@@H](C)[C@H](C)OC4=O)ncc12` [Compound 145], the IC50 (class designation) fell in the range of 1.1 to 10 nM and the IC50 (numeric value) was found to be 1.77 nM.

For `C[C@@H]1OC(=O)c2ccc(Nc3cc4c([C@](C)(N)C5CC5)cnc(NC5CC5)c4cn3)nc2[C@H]1C` [Compound 149], the IC50 by setting is: (class designation) less than 0.3 nM; (numeric value) 0.2 nM.

Turning to `C[C@@H]1OC(=O)c2ccc(Nc3cc4c([C@@](C)(N)C5CC5)cnc(NC5CC5)c4cn3)nc2[C@H]1C` [Compound 150], the IC50 is, setting by setting: (class designation) 1.1 to 10 nM; (numeric value) 5.24 nM.

In the case of `COc1ncc(C(C)(C)NC2CCC2)c2cc(Nc3ccc4c(n3)CC(C)(C)OC4=O)ncc12` [Compound 158, 2-((5-(2-(Cyclobutylamino)propan-2-yl)-8-methoxy-2,7-naphthyridin-3-yl)amino)-7,7-dimethyl-7,8-dihydro-5H-pyrano[4,3-b]pyridin-5-one], the IC50 is 1.1 to 10 nM (class designation) and 6.46 nM (numeric value).

`C[C@@H]1OC(=O)c2ccc(Nc3cc4c(C(C)(C)N)cnc(O[C@@H]5CCOC5)c4cn3)nc2[C@H]1C` [Compound 160]: the IC50 is 1.1 to 10 nM (class designation) and 1.25 nM (numeric value).

In the case of `C[C@@H]1OC(=O)c2ccc(Nc3cc4c(C(C)(C)N)cnc(O[C@H]5C[C@H](F)C5)c4cn3)nc2[C@H]1C` [Compound 161], the IC50 runs as follows: (class designation) 1.1 to 10 nM; (numeric value) 1.37 nM.

Regarding `C[C@@H]1OC(=O)c2ccc(Nc3cc4c(C(C)(C)N)cnc(OCC5(F)CC5)c4cn3)nc2[C@H]1C` [Compound 162], the IC50 (class designation) was less than 0.3 nM and the IC50 (numeric value) was determined as 0.24 nM.

Regarding `C[C@@H]1OC(=O)c2ccc(Nc3cc4c(C(C)(C)N)cnc(O[C@H]5C[C@@H](F)C5)c4cn3)nc2[C@H]1C` [Compound 163], the IC50 reads like this: (class designation) less than 0.3 nM; (numeric value) 0.25 nM.

With `CC1(C)Cc2nc(Nc3cc4c([C@@](C)(N)C5CCC5)cnc(OC5CC5)c4cn3)ccc2C(=O)O1` [Compound 169], the IC50 (class designation) fell in the range of 1.1 to 10 nM.

For the molecule `CC1(C)Cc2nc(Nc3cc4c(C(C)(C)NCCO)cnc(OC5CC5)c4cn3)ccc2C(=O)O1` [Compound 177, 2-((8-Cyclopropoxy-5-(2-((2-hydroxyethyl)amino)propan-2-yl)-2,7-naphthyridin-3-yl)amino)-7,7-dimethyl-7,8-dihydro-5H-pyrano[4,3-b]pyridin-5-one], the IC50 by setting is: (class designation) 1.1 to 10 nM; (numeric value) 6.52 nM.

With `CC1(Oc2ncc([C@](C)(N)C3CC3)c3cc(Nc4ccc5c(n4)C(C)(C)COC5=O)ncc23)CC1` [Compound 185], the IC50 is, setting by setting: (class designation) 0.31 to 1 nM; (numeric value) 0.35 nM.
